Source: patent US8242152B2, “Use of 4-[(4-thiazolyl)phenoxy]alkoxy-benzamidine derivatives for the prophylaxis and treatment of osteoporosis” (Dong Wha Pharmaceutical Co., Ltd., priority 2001, dated 2012)

Experiments:
[1] = test system: osteoclast fusion; test: Fusion assay of prefusion osteoclasts (Example 2); type: cell-based, mice; conditions: Mus musculus, Osteoclast, 24 hrs
Source text: This assay is designed to evaluate the influences of each test substance in terms of osteoclast fusion during the differentiation process in which immature prefusion osteoclasts (pOC; osteoclast structure with one more nuclei) were transformed into mature multinucleated osteoclast (OCL) via cell to cell fusion (Gregg Wesolowski et al. Experimental Cell Research 219,679-686, 1995).
The prefusion osteoclast can be obtained via co-culture of both bone marrow cells and osteoblast, as prepared from Example 1. The mixture of both osteoblast (about 5×10^5 cells/plate) and bone marrow cells (about 1×10^7 cells/plate) were co-cultured in a 100 mm culture dish. Some differentiation factors, such as dexamethasone (10^−6M) and vitamin D3 (10^−9M), were added to the medium from the first day of culture. The medium was changed with a fresh medium containing differentiation factors every 2 days.
Since a great number of the prefusion osteoclasts having one or more nuclei in fusion process were formed during 4-day co-culture, the cells were separated and co-cultivation after 4 days. The medium was removed from the cells and with the addition of 0.2% collagenase solution (4 mL), the cells were incubated at 37° C. for 20 mins to separate the attachment cells. Since the majority of separated cells were osteoblasts, all osteoblasts were washed with PBS solution two or three times for their complete removal.
After the remaining prefusion osteoclasts were separated via reaction for 20 mins with the addition of echistatin containing 10% BSA, the cells were harvested by centrifuge.
The test substances diluted at each concentration were diluted at the desired concentration in α-MEM medium (addition of 10% FBS) to load them into a 96-well microplate in a dose of 100 uL per well. The osteoclastic monocytes, so separated from the preceding No. 1, were plated on a 96-well microplate in a dose of 5×10^3 cell/100 uL per well and cultured at 37° C. for 24 hrs, thus successfully resulting in the osteoclast fusion. In the case of specimen-free and positive controls, experiments were performed in the same manner as above.
The medium was removed from the cells and then the cells were washed once with PBS and fixed to a PBS solution containing 10% formalin for about 5 mins. The cells were again fixed to both ethanol and acetone (1/1) in a mixing solution for about 5 mins and dried off. The cells were further treated by TRAP staining solution for 15 mins and washed with water to observe the cells under the microscope. The TRAP-positive osteoclast counts, which were differentiated from monocyte to multinucleated cells (osteoclast having more than 10 nuclei) via fusion process, were measured.

[2] = test system: osteoclast differentiation; test: Osteoclast differentiation, co-culture, TRAP(+)MNCs (Example 5); type: cell-based, mice
Method: To investigate the effect of compounds on osteoclast differentiation, co-culture between bone marrow cells (2.5×10^5 cells/cm^2) and calvaria-derived osteoblastic cells (4×10^4 cells/cm^2) was conducted in the presence of 1.25(OH)2D3(10^−8 M) and dexamethasone (10^−7 M) with α-MEM containing 10% FBS (referred as “osteoclastic medium”). Bone marrow cells were isolated from the femora of 6-week-old ddY mice and primary osteoblastic cells were isolated from the calvariae of newborn ICR mice by sequential digestion with 0.2% collagenase. The medium was changed every two days with fresh osteoclastic medium. An index of osteoclast formation was determined by counting TRAP-positive multinucleated osteoclasts (TRAP(+)MNCs). On day 6, the cells were fixed with 10% formaldehyde and stained for TRAP. The number of TRAP(+) MNCs containing more than 6-7 nuclei was counted under a microscope (ZEISS Axiovert 25, Switzerland). The results are shown as the relative inhibitory activity (% inhibition) compared to the control group.

[3] = test system: osteoclast fusion; test: Osteoclast fusion assay with purified prefusion osteoclasts (Example 5); type: cell-based, mice
Method: The effect of the compounds on the fusion of osteoclasts was examined using purified prefusion osteoclasts (pOC, mononuclear and binuclear osteoclasts). Co-cultures of bone marrow cells (2×10^7 cells/dish) and newborn mice calvariae (1×10^6 cells/dish) were maintained in 100-mm-diameter dishes for 4 days with osteoclast differontiarion factor. Cultures were washed twice with PBS and treated with 0.1% collagenase/dispase at 37° C. for 20 minutes. Released cells, mostly osteoblasts, were removed with a pipet and the plates were washed three times with PBS. The remaining cells were incubated with 30 uM echistatin in α-MEM containing 1% BSA for 20 min at 37° C. These cells were collected, pelleted, and washed once with α-MEM containing 10% FBS. The cells released by this treatment were the subject of the fusion assay. More than 90% of the cells in the pOCs preparation used in the present study were positive for TRAP.
pOCs (15,000 cells/well) were plated on 96 well culture plates with or without various compounds. After culture for 18 hours, the cells were fixed and stained for TRAP.

[4] = test system: osteoclast activity (resorption pits); test: Bone resorption pit formation assay on dentine slice (Example 5); type: cell-based, mice
Method: Method for evaluating the effects of the compounds on osteoclast activity: Multinucleated osteoclasts were developed on collagen gel plates by co-culture system as described. On day 6-8 of the co-culture, multinucleated OCLs were detached from plates by 0.2% collagenase treatment (“crude OCLs”). Crude OCLs suspended in α-MEM containing 10% FBS were placed on a dentine slice (4 mm diameter) in a 96-well culture plate. […] At the end of the incubation, cells were removed by 1 M NH4OH treatment and resorption pits formed (in the slices stained with Mayer's hematoxylin). Resorption pits were enumerated with an image analyzer and compared to the control group.

[5] = test system: Primary osteoblastic cells; test: ALP activity in primary osteoblastic cells (Example 5); type: cell-based, ICR mice; conditions: 3 days
Method: Primary osteoblastic cells isolated from the calvariae of newborn ICR mice were grown to confluence in α-MEM containing 10% FBS. These cells were plated at a density of 1×10^5/ml in tissue culture dishes. After 24 h, cells were changed with a differentiation medium containing ascorbic acid (50 ug/ml) and β-glycerophosphate (10 mM) with or without the compounds and further cultured for 3 days. Cells were washed twice with PBS and harvested. For the measurement of ALP activity and total protein content, cells were extracted into 0.1% Triton X-100 in PBS containing 1 mM MgCl2 and centrifuged at 1.000×g for 5 minutes. Enzyme activity was determined in supernatants by colorimetric procedure using p-nitrophenyl phosphate (PNP) as a substrate at a wavelength of 405 nm and the protein content was determined by a Bio-Rad protein assay kit. The ALP unit was expressed as nmol PNP/ug protein/min.

Cc1nc(-c2ccc(OCCCCCOc3ccc(C(=N)N)cc3)cc2)c(C(C)C)s1 [DW1352, 4-{5-[4-(5-isopropyl-2-methyl-1,3-thiazol-4-yl)phenoxy]pentoxy}-benzamidine] showed an inhibition at 0.08 µM ([1]; 0.08 uM, read-out: Inhibitory action (%)) of 5.13%, an inhibition at 0.4 µM ([1]; 0.4 uM, read-out: Inhibitory action (%)) of 24.7% and an inhibition at 2 µM ([1]; 2 uM, read-out: Inhibitory action (%)) of 87.2%. The inhibition at 10 µM ([1]; 10 uM, read-out: Inhibitory action (%)) was 99%, the IC50 [1] was 740 nM and the inhibition at 0.01 µM ([2]; Mus musculus, Osteoclast, 144 h, 0.01 uM, day 6, read-out: % inhibitory action) was 27.1%. For the same compound, the inhibition at 0.1 µM ([2]; Mus musculus, Osteoclast, 144 h, 0.1 uM, day 6, read-out: % inhibitory action) was 41.3%, the inhibition at 1 µM ([2]; Mus musculus, Osteoclast, 144 h, 1 uM, day 6, read-out: % inhibitory action) was 80.9% and the “times stronger inhibition of osteoclast differentiation than DW1351” value ([2]; versus DW1351, Table 8) was “about 1.35 times”. For the same compound, the inhibition at 0.08 µM ([3]; Mus musculus, Osteoclast, 0.08 uM, 18 hours, read-out: Inhibitory action (%)) was 5.13%, the inhibition at 0.4 µM ([3]; Mus musculus, Osteoclast, 0.4 uM, 18 hours, read-out: Inhibitory action (%)) was 24.7% and the inhibition at 2 µM ([3]; Mus musculus, Osteoclast, 2 uM, 18 hours, read-out: Inhibitory action (%)) was 87.2%. For the same compound, the inhibition at 10 µM ([3]; Mus musculus, Osteoclast, 10 uM, 18 hours, read-out: Inhibitory action (%)) was 99%, the IC50 ([3]; Mus musculus, Osteoclast, 18 hours) was 740 nM and the “times more inhibition of osteoclast fusion than DW1351” value ([3]; versus DW1351) was 2.3 times. The inhibition at 0.01 µM ([4]; Mus musculus, Osteoclast, 0.01 uM, dentine slice, 24 h, read-out: Inhibitory activity (%)) was 21.7%, the inhibition at 0.1 µM ([4]; Mus musculus, Osteoclast, 0.1 uM, dentine slice, 24 h, read-out: Inhibitory activity (%)) was 36% and the inhibition at 1 µM ([4]; Mus musculus, Osteoclast, 1 uM, dentine slice, 24 h, read-out: Inhibitory activity (%)) was 64.1%. For the same compound, the “times more inhibition of osteoclast activity than DW1351” value ([4]; versus DW1351, Table 10) was “about 1.35 times”, the “ALP activity (% of control)” value ([5]; 0.01 uM) was 113.0 % of control and the “ALP activity (Unit)” value ([5]; 0.01 uM) was 19.2 nmol PNP/ug protein/min. For the same compound, the “ALP activity (% of control)” value ([5]; 0.1 uM) was 111.7 % of control and the “ALP activity (Unit)” value ([5]; 0.1 uM) was 19.1 nmol PNP/ug protein/min.
